Results as given in patent US12522597B2, “Methods and compositions for modulating splicing” (Skyhawk Therapeutics, Inc., priority 2019, dated 2026).
Read-outs that look alike come from different tables or passages of the source.

Legend:
mHTT protein = mHTT protein assay (2B7-MW1, Mesoscale Discovery); format: cell-based, human; details: GM04724 (CAG 70/20) Huntington's disease patient lymphoblast cells, 48 hours, 2B7-MW1 MSD; read-out: HTT Potency - Protein EC50 mHTT (average)
Procedure, shortened: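 GM04724 Huntington's patient lymphoblasts (CAG 70/20) were treated for 48 h at 10 μM to 0.6 nM. mHTT was quantified by 2B7-MW1 MSD immunoassay, whose signal depends on polyQ expansion and HTT fragment size. Viability was run on a parallel plate by CellTiter-Glo.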

[1] = test system: Huntingtin (HTT) transcripts; test: Quantitative splicing assay (HTT), qPCR; format: cell-based; details: Homo sapiens, GM04724 (CAG 70/20) Huntington's disease patient lymphoblasts, 24 h
Experimental: GM04724 (CAG 70/20) Huntington's disease patient lymphoblasts (Coriell) are plated in 96-wel v-bottom plates at 50,000 cells/well. Immediately after plating, cells are dosed with compound for 24 h at concentrations ranging from 2.5 uM to 0.15 nM (0.1% DMSO). Treated cells are lysed and cDNA synthesized using the Fast Advanced Cells-to-Ct kit (Thermofisher A35378) according to the manufacturer's instructions. 2 uL of each cDNA are used in qPCR reactions to confirm the compound-induced inclusion of a cryptic exon within intron 49 of the Huntingtin (HTT) transcripts. The qPCR reactions are prepared in 384-well plates in 10 uL volume, using TaqMan™ Fast Advanced Master Mix [ThermoFisher; 4444965] with primers and probes shown in the table below. Reactions are run in a Quant Studio 6 qPCR instrument with default settings.

MDR1 = test: MDCK-MDR1 permeability assay (BBB penetration potential); format: in vitro ADME; details: dog; for efflux ratio at 120 min, 5 μM: MDCK-MDR1, pH 7.4, MDCK-MDR1: Efflux; for Papp A→B at 120 min, 5 μM: MDCK-MDR1, pH 7.4, MDCK-MDR1: Papp A-B; for Papp B→A at 120 min, 5 μM: MDCK-MDR1, pH 7.4, MDCK-MDR1: Papp B-A
Experimental: (§1) Each determination is performed in duplicate. […] Analytical conditions are outlined below.

[2] = test system: MDR1-MDCK cell monolayers; test: as above; format: in vitro ADME; details: dog, MDCK-MDR1, 120 min, 5 μM, pH 7.4
Experimental: as §1

[3] = qPCR HTTex49_50, read-out: HTT Potency - Splicing: E49-50 EC50 (average)
[4] = qPCR cryptic exon 49b inclusion, read-out: HTT Potency - Splicing: E49b EC50 (average)

Cc1ccc(-c2ccc(-c3ccc(O[C@H]4C[C@@H]5CCC[C@@H](N5)[C@H]4F)nn3)c(O)c2)nn1 (single isomer, unassigned) [75-ENT2]
EC50 (mHTT protein): 501 to 10000 nM | EC50 [1, 3]: 501 to 10000 nM | EC50 [1, 4]: 501 to 10000 nM | efflux ratio at 120 min, 5 μM (MDR1): 10 | Papp A→B at 120 min, 5 μM (MDR1): 3.96 ×10⁻⁶ cm/s | Papp B→A at 120 min, 5 μM (MDR1): 39.7 ×10⁻⁶ cm/s | MDCK-MDR1: % Recov A-B [2]: 82% | MDCK-MDR1: % Recov B-A [2]: 78%

C[C@]12CCC[C@](C)(N1)[C@H](F)[C@H](Oc1ccc(-c3ccc(-c4cn[nH]c4)cc3O)nn1)C2 (single isomer, unassigned) [147-ENT2]
EC50 (mHTT protein): 0.01 to 15 nM | EC50 [1, 3]: 0.01 to 15 nM | EC50 [1, 4]: 0.01 to 15 nM | efflux ratio at 120 min, 5 μM (MDR1): 13 | Papp A→B at 120 min, 5 μM (MDR1): 4.46 ×10⁻⁶ cm/s | Papp B→A at 120 min, 5 μM (MDR1): 58.1 ×10⁻⁶ cm/s | MDCK-MDR1: % Recov A-B [2]: 71% | MDCK-MDR1: % Recov B-A [2]: 80%

Cn1ccc2cc(-c3ccc(O[C@@H]4C[C@@]5(C)CCC[C@](C)(N5)[C@@H]4F)nn3)c(O)cc2c1=O (single isomer, unassigned) [156-ENT1]
EC50 (mHTT protein): 0.01 to 15 nM | EC50 [1, 3]: 16 to 50 nM | EC50 [1, 4]: 16 to 50 nM | efflux ratio at 120 min, 5 μM (MDR1): 11 | Papp A→B at 120 min, 5 μM (MDR1): 4.79 ×10⁻⁶ cm/s | Papp B→A at 120 min, 5 μM (MDR1): 52.6 ×10⁻⁶ cm/s | MDCK-MDR1: % Recov A-B [2]: 86% | MDCK-MDR1: % Recov B-A [2]: 90%

Oc1cc(-c2cn[nH]c2)ccc1-c1ccc(O[C@@H]2C[C@H]3CC(F)(F)[C@@H](C2)N3)nn1 (single isomer, unassigned) [46-ENT2]
EC50 (mHTT protein): 101 to 500 nM | EC50 [1, 3]: 101 to 500 nM | EC50 [1, 4]: 101 to 500 nM | efflux ratio at 120 min, 5 μM (MDR1): 3 | Papp A→B at 120 min, 5 μM (MDR1): 14.2 ×10⁻⁶ cm/s | Papp B→A at 120 min, 5 μM (MDR1): 43.2 ×10⁻⁶ cm/s | MDCK-MDR1: % Recov A-B [2]: 72% | MDCK-MDR1: % Recov B-A [2]: 83%

Oc1cc(-c2cn[nH]c2)c(F)cc1-c1ccc(O[C@@H]2C[C@H]3CCC[C@H](N3)[C@@H]2F)nn1 (single isomer, unassigned) [56-ENT1]
EC50 (mHTT protein): 0.01 to 15 nM | EC50 [1, 3]: 0.01 to 15 nM | EC50 [1, 4]: 0.01 to 15 nM | efflux ratio at 120 min, 5 μM (MDR1): 15 | Papp A→B at 120 min, 5 μM (MDR1): 2.63 ×10⁻⁶ cm/s | Papp B→A at 120 min, 5 μM (MDR1): 39 ×10⁻⁶ cm/s | MDCK-MDR1: % Recov A-B [2]: 55% | MDCK-MDR1: % Recov B-A [2]: 74%

COc1cc(-c2ccc(-c3ccc(O[C@@H]4C[C@H]5CCC[C@H](N5)[C@@H]4F)nn3)c(O)c2)cnn1 (single isomer, unassigned) [76-ENT1]
EC50 (mHTT protein): 16 to 50 nM | EC50 [1, 3]: 0.01 to 15 nM | EC50 [1, 4]: 0.01 to 15 nM | efflux ratio at 120 min, 5 μM (MDR1): 8 | Papp A→B at 120 min, 5 μM (MDR1): 3.83 ×10⁻⁶ cm/s | Papp B→A at 120 min, 5 μM (MDR1): 32.3 ×10⁻⁶ cm/s | MDCK-MDR1: % Recov A-B [2]: 64% | MDCK-MDR1: % Recov B-A [2]: 70%

Cn1cc(-c2ccc(-c3ccc(O[C@@H]4C[C@H]5CC[C@H](N5)[C@@H]4F)nn3)c(O)c2)cn1 (single isomer, unassigned) [60-ENT1]
EC50 (mHTT protein): 16 to 50 nM | EC50 [1, 3]: 51 to 100 nM | EC50 [1, 4]: 16 to 50 nM | efflux ratio at 120 min, 5 μM (MDR1): 4 | Papp A→B at 120 min, 5 μM (MDR1): 7.46 ×10⁻⁶ cm/s | Papp B→A at 120 min, 5 μM (MDR1): 30.5 ×10⁻⁶ cm/s | MDCK-MDR1: % Recov A-B [2]: 68% | MDCK-MDR1: % Recov B-A [2]: 84%

Cn1ccc2cc(O)c(-c3ccc(O[C@@H]4C[C@@]5(C)CC[C@](C)(N5)[C@@H]4F)nn3)cc2c1=O (single isomer, unassigned) [130-ENT2]
EC50 (mHTT protein): 0.01 to 15 nM | EC50 [1, 3]: 16 to 50 nM | EC50 [1, 4]: 16 to 50 nM | efflux ratio at 120 min, 5 μM (MDR1): 5 | Papp A→B at 120 min, 5 μM (MDR1): 9.9 ×10⁻⁶ cm/s | Papp B→A at 120 min, 5 μM (MDR1): 49.6 ×10⁻⁶ cm/s | MDCK-MDR1: % Recov A-B [2]: 78% | MDCK-MDR1: % Recov B-A [2]: 79%

Cc1ncc(-c2ccc(-c3ccc(O[C@@H]4C[C@H]5CCC[C@H](N5)[C@@H]4F)nn3)c(O)c2)s1 (single isomer, unassigned) [96-ENT1]
EC50 (mHTT protein): 16 to 50 nM | EC50 [1, 3]: 16 to 50 nM | EC50 [1, 4]: 16 to 50 nM | efflux ratio at 120 min, 5 μM (MDR1): 2 | Papp A→B at 120 min, 5 μM (MDR1): 7.37 ×10⁻⁶ cm/s | Papp B→A at 120 min, 5 μM (MDR1): 15.2 ×10⁻⁶ cm/s | MDCK-MDR1: % Recov A-B [2]: 39% | MDCK-MDR1: % Recov B-A [2]: 72%

Cn1cnc2cc(O)c(-c3ccc(O[C@H]4C[C@]5(C)CCC[C@@](C)(N5)[C@H]4F)nn3)cc2c1=O (single isomer, unassigned) [133-ENT1]
EC50 (mHTT protein): 0.01 to 15 nM | EC50 [1, 3]: 101 to 500 nM | EC50 [1, 4]: 51 to 100 nM | efflux ratio at 120 min, 5 μM (MDR1): 10 | Papp A→B at 120 min, 5 μM (MDR1): 4.98 ×10⁻⁶ cm/s | Papp B→A at 120 min, 5 μM (MDR1): 52.4 ×10⁻⁶ cm/s | MDCK-MDR1: % Recov A-B [2]: 81% | MDCK-MDR1: % Recov B-A [2]: 87%

Cn1cc(-c2ccc(-c3ccc(O[C@H]4C[C@@H]5CC[C@@H](N5)[C@H]4F)nn3)c(O)c2)cn1 (single isomer, unassigned) [60-ENT2]
EC50 (mHTT protein): 51 to 100 nM | EC50 [1, 3]: 16 to 50 nM | EC50 [1, 4]: 16 to 50 nM | efflux ratio at 120 min, 5 μM (MDR1): 4 | Papp A→B at 120 min, 5 μM (MDR1): 8.12 ×10⁻⁶ cm/s | Papp B→A at 120 min, 5 μM (MDR1): 31.3 ×10⁻⁶ cm/s | MDCK-MDR1: % Recov A-B [2]: 67% | MDCK-MDR1: % Recov B-A [2]: 78%

Cn1cc(-c2ccc(-c3ccc(O[C@H]4C[C@@H]5CCC[C@@H](N5)[C@@H]4F)nn3)c(O)c2)cn1 (single isomer, unassigned) [49-ENT2]
EC50 (mHTT protein): 16 to 50 nM | EC50 [1, 3]: 16 to 50 nM | EC50 [1, 4]: 0.01 to 15 nM | efflux ratio at 120 min, 5 μM (MDR1): 3 | Papp A→B at 120 min, 5 μM (MDR1): 4.62 ×10⁻⁶ cm/s | Papp B→A at 120 min, 5 μM (MDR1): 15.4 ×10⁻⁶ cm/s | MDCK-MDR1: % Recov A-B [2]: 46% | MDCK-MDR1: % Recov B-A [2]: 75%

Cn1cnc2cc(O)c(-c3ccc(O[C@@H]4C[C@@]5(C)CCC[C@](C)(N5)[C@@H]4F)nn3)cc2c1=O (single isomer, unassigned) [133-ENT2]
EC50 (mHTT protein): 0.01 to 15 nM | EC50 [1, 3]: 51 to 100 nM | EC50 [1, 4]: 51 to 100 nM | efflux ratio at 120 min, 5 μM (MDR1): 12 | Papp A→B at 120 min, 5 μM (MDR1): 5.25 ×10⁻⁶ cm/s | Papp B→A at 120 min, 5 μM (MDR1): 60.9 ×10⁻⁶ cm/s | MDCK-MDR1: % Recov A-B [2]: 92% | MDCK-MDR1: % Recov B-A [2]: 90%

Oc1cc(-n2ccc(F)n2)ccc1-c1ccc(O[C@H]2C[C@@H]3CCC[C@@H](N3)[C@H]2F)nn1 (single isomer, unassigned) [115-ENT2]
EC50 (mHTT protein): 0.01 to 15 nM | EC50 [1, 3]: 16 to 50 nM | EC50 [1, 4]: 16 to 50 nM | efflux ratio at 120 min, 5 μM (MDR1): 2 | Papp A→B at 120 min, 5 μM (MDR1): 6.9 ×10⁻⁶ cm/s | Papp B→A at 120 min, 5 μM (MDR1): 12 ×10⁻⁶ cm/s | MDCK-MDR1: % Recov A-B [2]: 43% | MDCK-MDR1: % Recov B-A [2]: 67%

O=c1cc(-c2ccc(-c3ccc(O[C@@H]4C[C@H]5CCC[C@H](N5)[C@@H]4F)nn3)c(O)c2)cc[nH]1 (single isomer, unassigned) [53-ENT1]
EC50 (mHTT protein): 101 to 500 nM | EC50 [1, 3]: 101 to 500 nM | EC50 [1, 4]: 101 to 500 nM | efflux ratio at 120 min, 5 μM (MDR1): 103 | Papp A→B at 120 min, 5 μM (MDR1): 0.22 ×10⁻⁶ cm/s | Papp B→A at 120 min, 5 μM (MDR1): 22.2 ×10⁻⁶ cm/s | MDCK-MDR1: % Recov A-B [2]: 91% | MDCK-MDR1: % Recov B-A [2]: 90%

Cn1c(=O)oc2cc(-c3ccc(O[C@@H]4C[C@H]5CCC[C@H](N5)[C@@H]4F)nn3)c(O)cc21 (single isomer, unassigned) [74-ENT1]
EC50 (mHTT protein): 501 to 10000 nM | EC50 [1, 3]: 101 to 500 nM | EC50 [1, 4]: 501 to 10000 nM | efflux ratio at 120 min, 5 μM (MDR1): 4 | Papp A→B at 120 min, 5 μM (MDR1): 5.6 ×10⁻⁶ cm/s | Papp B→A at 120 min, 5 μM (MDR1): 22.8 ×10⁻⁶ cm/s | MDCK-MDR1: % Recov A-B [2]: 96% | MDCK-MDR1: % Recov B-A [2]: 88%
